# From US6710049B2, “Azole compounds as anti-fungal agents” (Ranbaxy Laboratories Limited, priority 2000, dated 2004)
# Columns and labels:
# Penicillium 2548 = assay: MFC determination (subculture on Sabouraud Dextrose Agar); format: cell-based
# Source text: (§1) The in-vitro evaluation of the antifungal activity of the compounds can be performed by determining the minimum inhibitory concentration (MIC) as shown in Table 1 which is the concentration of the test compound in Rosewell Park Memorial Institute (RPMI) 1640 liquid medium buffered with 3-(Morpholino)propanesulphonic acid (MOPS) to pH 7, at which there is significant inhibition of the particular fungi. In practice the National Committee for Clinical Laboratory Standard (NCCLS) M27A document for Candida and Cryptococcus and M38P for Aspergillus was used to determine the MIC against yeast and filamentous fungi with suitable modifications for dermatophytes to other filamentous fungi. Three quality control strains were included each time the MIC were determined and readings recorded only when the Quality Control results fell into the acceptable range. After MIC results had been recorded, 100 μl from each of the well showing no growth was spread over Sabouraud Dextrose Agar (SDA) to determine the minimum fungicidal concentration (MFC) as shown in Table 2.
# Penicillium 1641 = assay: as above; format: cell-based
# Source text: as §1
# A niger P1 - 1046 = assay: as above; format: cell-based
# Source text: as §1
# A flavus P2 - 1045 = assay: as above; format: cell-based
# Source text: as §1
# Penicillium 2306 = assay: as above; format: cell-based
# Source text: as §1
# A flavus E3 - 1044 = assay: as above; format: cell-based
# Source text: as §1
# C parapsilosis 22019 = assay: as above; format: cell-based
# Source text: as §1
# Rhizopus (Ceylon) = assay: as above; format: cell-based
# Source text: as §1
# A flavus P3 - 1041 = assay: as above; format: cell-based
# Source text: as §1
# Mucor (Ceylon) = assay: as above; format: cell-based
# Source text: as §1
# Rhizopus 1052 = assay: as above; format: cell-based
# Source text: as §1
# Penicillium H - 1048 = assay: as above; format: cell-based
# Source text: as §1
# A flavus E4 - 1042 = assay: as above; format: cell-based
# Source text: as §1
# Penicillium I - 1049 = assay: as above; format: cell-based
# Source text: as §1
# Alternaria 1051 = assay: as above; format: cell-based
# Source text: as §1
# A niger E5 - 1047 = assay: as above; format: cell-based
# Source text: as §1
# Penicillium 31620 = assay: as above; format: cell-based
# Source text: as §1
# Penicillium 191 = assay: as above; format: cell-based
# Source text: as §1
# C krusei 6258 = assay: as above; format: cell-based
# Source text: as §1
# All Filamentous isolates = assay: Comparative in vitro MIC, isolate panel; format: cell-based
# Source text: as §1
# (§2) A comparative in vitro and in vivo biologically activity data of the compound of our invention, 2-{[1R,2R]-2-(2,4-Difluorophenyl)-2-hydroxy-1-methyl-3-(1H-1,2,4-triazole-1-yl)propyl}-4-[(2′,2′,3′,3′-tetrafluoropropoxyphenyl)-3-(2H,4H)-1,2,4-thiotriazolone (Compound No. 3) with 2-[(1R,2R)-2-(2,4-difluorophenyl)-2-hydroxy-1-methyl-3-(1H-1,2,4-triazol-1-yl)propyl]-4-(2′,2′,3′,3′-tetraflouropropoxyphenyl)-3(2H,4H)-1,2,4-triazolone (TAK 187) and standard antifungal pharmaceuticals is given below: […]
# [1] = system: Penicillium spp. isolates; assay: Comparative in vitro MIC, isolate panel; format: cell-based
# Source text: as §1, §2
# Fusarium spp. isolates = assay: Comparative in vitro MIC, isolate panel; format: cell-based
# Source text: as §1, §2
# Rhizoupus spp. isolates = assay: Comparative in vitro MIC, isolate panel; format: cell-based
# Source text: as §1, §2
# All fungal pathogens = assay: Comparative in vitro MIC, isolate panel; format: cell-based
# Source text: as §1, §2
# [2] = system: Aspergillus fumigatus isolates; assay: Comparative in vitro MIC, isolate panel; format: cell-based
# Source text: as §1, §2
# All Candida isolates = assay: Comparative in vitro MIC, isolate panel; format: cell-based
# Source text: as §1, §2
# C neoformans M-106 = assay: MIC determination (NCCLS broth method); format: cell-based, Cryptococcus neoformans
# Source text: as §1
# C neoformans I = assay: MIC determination (NCCLS broth method); format: cell-based, Cryptococcus neoformans
# Source text: as §1
# Fusarium 18270 = assay: MFC determination (subculture on Sabouraud Dextrose Agar); format: cell-based; details: Fusarium 18270
# Source text: as §1
# Fusarium (Ceylon) = assay: as above; format: cell-based
# Source text: as §1
# Fusarium 29600 = assay: as above; format: cell-based; details: Fusarium 29600
# Source text: as §1
# Aspergillus fumigatous = assay: In vivo anti-fungal activity, ED50 in systemically infected mice; design: species or system Swiss albino mice; details: mice infected i.v. with Aspergillus fumigatous, dosing for five days
# Description: The in-vivo evaluation of the compound can be carried out at a series of dose levels by oral or I. V. injection to mice which are inoculated I.V. with the minimum lethal dose of Candida albicans, Cryptococcus neoformans or Aspergillus fumigatus by the tail vein. Activity is based on the survival of a treated group of mice after the death of an untreated group of mice. For Aspergillus and Cryptococcus infections, target organs were cultured after treatment to document the number of mice cured of the infection for further assessment of activity.
# Method: Briefly, Swiss albino mice weighing 20±2 G were injected intravenously (tail vein) with sufficient fungal cells to kill 100% of the untreated animals for Aspergillus fumigatous strain used. In all cases each group comprised of six mice. Five does levels, utilizing doubling dilution range, were employed per determination ranging from 25 to 1.56 mg/kg BW. Dosing was carried out for five days starting after 30 minutes of infection. […] Treated animals were monitored twice daily for 14 days post infection at which time the experiment was terminated and ED50 was calculated.
smiles,measurement,setting,value
"C[C@@H]1[C@H](O)[C@@H](C)/C=C/C=C/C=C/C=C/C=C/C=C/C=C/[C@H](O[C@@H]2O[C@H](C)[C@@H](O)[C@H](N)[C@@H]2O)C[C@@H]2O[C@](O)(C[C@@H](O)C[C@@H](O)[C@H](O)CC[C@@H](O)C[C@@H](O)CC(=O)O[C@H]1C)C[C@H](O)[C@H]2C(=O)O [Amphotericin-B, Amphotericin B]",Minimum Fungicidal Concentration (MFC),Penicillium 2548,4 µg/mL
same,Minimum Fungicidal Concentration (MFC),Penicillium 1641,16 µg/mL
same,Minimum Fungicidal Concentration (MFC),A niger P1 - 1046,0.25 µg/mL
same,Minimum Fungicidal Concentration (MFC),A flavus P2 - 1045,1 µg/mL
same,Minimum Fungicidal Concentration (MFC),Penicillium 2306,0.5 µg/mL
same,Minimum Fungicidal Concentration (MFC),A flavus E3 - 1044,0.5 µg/mL
same,Minimum Fungicidal Concentration (MFC),C parapsilosis 22019,32 µg/mL
same,Minimum Fungicidal Concentration (MFC),Rhizopus (Ceylon),64 µg/mL
same,Minimum Fungicidal Concentration (MFC),A flavus P3 - 1041,0.5 µg/mL
same,Minimum Fungicidal Concentration (MFC),Mucor (Ceylon),1 µg/mL
same,Minimum Fungicidal Concentration (MFC),Rhizopus 1052,8 µg/mL
same,Minimum Fungicidal Concentration (MFC),Penicillium H - 1048,2 µg/mL
same,Minimum Fungicidal Concentration (MFC),A flavus E4 - 1042,0.125 µg/mL
same,Minimum Fungicidal Concentration (MFC),Penicillium I - 1049,4 µg/mL
same,Minimum Fungicidal Concentration (MFC),Alternaria 1051,>128 µg/mL
same,Minimum Fungicidal Concentration (MFC),A niger E5 - 1047,0.25 µg/mL
same,Minimum Fungicidal Concentration (MFC),Penicillium 31620,0.25 µg/mL
same,Minimum Fungicidal Concentration (MFC),Penicillium 191,2 µg/mL
same,Minimum Fungicidal Concentration (MFC),C krusei 6258,1 µg/mL
same,MIC50,All Filamentous isolates,0.25 µg/mL
same,MIC90,All Filamentous isolates,0.5 µg/mL
same,MIC G.M.,All Filamentous isolates,0.22 µg/mL
same,MIC50,[1],0.25 µg/mL
same,MIC90,[1],0.25 µg/mL
same,MIC G.M.,[1],0.144 µg/mL
same,MIC50,Fusarium spp. isolates,0.5 µg/mL
same,MIC90,Fusarium spp. isolates,2 µg/mL
same,MIC G.M.,Fusarium spp. isolates,0.841 µg/mL
same,MIC50,Rhizoupus spp. isolates,0.125 µg/mL
same,MIC90,Rhizoupus spp. isolates,0.25 µg/mL
same,MIC G.M.,Rhizoupus spp. isolates,0.177 µg/mL
same,MIC50,All fungal pathogens,0.25 µg/mL
same,MIC90,All fungal pathogens,0.5 µg/mL
same,MIC G.M.,All fungal pathogens,0.21 µg/mL
same,MIC50,[2],0.25 µg/mL
same,MIC90,[2],0.5 µg/mL
same,MIC G.M.,[2],0.27 µg/mL
same,MIC50,All Candida isolates,0.25 µg/mL
same,MIC90,All Candida isolates,0.25 µg/mL
same,MIC G.M.,All Candida isolates,0.22 µg/mL
same,Minimum Inhibitory Concentration (MIC),C neoformans M-106,0.03 µg/mL
same,Minimum Inhibitory Concentration (MIC),C neoformans I,0.06 µg/mL
"C[C@@H](n1ncn(-c2ccc(N3CCN(c4ccc(Cl)cc4)CC3)cc2)c1=S)[C@](O)(Cn1cncn1)c1ccc(F)cc1F [Compound No. 1, 2-{[1R,2R]-2-(2,4-Difluorophenyl)-2-hydroxy-1-methyl-3-(1H-1,2,4-triazole-1-yl)propyl}-4-{4-[4-(4-chlorophenyl)-1-piperizinyl]phenyl}-3-(2H,4H)-1,2,4-thiotriazolone]",Minimum Fungicidal Concentration (MFC),Penicillium 2548,0.125 µg/mL
same,Minimum Fungicidal Concentration (MFC),Penicillium 1641,0.25 µg/mL
same,Minimum Fungicidal Concentration (MFC),A niger P1 - 1046,0.06 µg/mL
same,Minimum Fungicidal Concentration (MFC),A flavus P2 - 1045,0.03 µg/mL
same,Minimum Fungicidal Concentration (MFC),Penicillium 2306,0.06 µg/mL
same,Minimum Fungicidal Concentration (MFC),A flavus E3 - 1044,0.03 µg/mL
same,Minimum Fungicidal Concentration (MFC),C parapsilosis 22019,0.016 µg/mL
same,Minimum Fungicidal Concentration (MFC),Rhizopus (Ceylon),0.5 µg/mL
same,Minimum Fungicidal Concentration (MFC),A flavus P3 - 1041,0.06 µg/mL
same,Minimum Fungicidal Concentration (MFC),Fusarium 18270,>128 µg/mL
same,Minimum Fungicidal Concentration (MFC),Mucor (Ceylon),1 µg/mL
same,Minimum Fungicidal Concentration (MFC),Rhizopus 1052,0.03 µg/mL
same,Minimum Fungicidal Concentration (MFC),Penicillium H - 1048,4 µg/mL
same,Minimum Fungicidal Concentration (MFC),A flavus E4 - 1042,0.03 µg/mL
same,Minimum Fungicidal Concentration (MFC),Penicillium I - 1049,1 µg/mL
same,Minimum Fungicidal Concentration (MFC),Alternaria 1051,0.06 µg/mL
same,Minimum Fungicidal Concentration (MFC),A niger E5 - 1047,0.06 µg/mL
same,Minimum Fungicidal Concentration (MFC),Fusarium (Ceylon),32 µg/mL
same,Minimum Fungicidal Concentration (MFC),Fusarium 29600,>128 µg/mL
same,Minimum Fungicidal Concentration (MFC),Penicillium 31620,0.125 µg/mL
same,Minimum Fungicidal Concentration (MFC),Penicillium 191,0.125 µg/mL
same,Minimum Fungicidal Concentration (MFC),C krusei 6258,0.016 µg/mL
same,Minimum Inhibitory Concentration (MIC),C neoformans M-106,0.008 µg/mL
same,Minimum Inhibitory Concentration (MIC),C neoformans I,0.008 µg/mL
"C[C@@H](n1ncn(-c2ccc(OCC(F)(F)C(F)F)cc2)c1=O)[C@](O)(Cn1cncn1)c1ccc(F)cc1F [TAK 187, 2-[(1R,2R)-2-(2,4-difluorophenyl)-2-hydroxy-1-methyl-3-(1H-1,2,4-triazol-1-yl)propyl]-4-(2′,2′,3′,3′-tetraflouropropoxyphenyl)-3(2H,4H)-1,2,4-triazolone]",Minimum Fungicidal Concentration (MFC),Penicillium 2548,16 µg/mL
same,Minimum Fungicidal Concentration (MFC),Penicillium 1641,32 µg/mL
same,Minimum Fungicidal Concentration (MFC),A niger P1 - 1046,0.5 µg/mL
same,Minimum Fungicidal Concentration (MFC),A flavus P2 - 1045,32 µg/mL
same,Minimum Fungicidal Concentration (MFC),Penicillium 2306,16 µg/mL
same,Minimum Fungicidal Concentration (MFC),A flavus E3 - 1044,8 µg/mL
same,Minimum Fungicidal Concentration (MFC),C parapsilosis 22019,0.03 µg/mL
same,Minimum Fungicidal Concentration (MFC),Rhizopus (Ceylon),>128 µg/mL
same,Minimum Fungicidal Concentration (MFC),Fusarium 18270,32 µg/mL
same,Minimum Fungicidal Concentration (MFC),Mucor (Ceylon),>128 µg/mL
same,Minimum Fungicidal Concentration (MFC),Rhizopus 1052,32 µg/mL
same,Minimum Fungicidal Concentration (MFC),Penicillium H - 1048,>128 µg/mL
same,Minimum Fungicidal Concentration (MFC),Penicillium I - 1049,128 µg/mL
same,Minimum Fungicidal Concentration (MFC),Alternaria 1051,16 µg/mL
same,Minimum Fungicidal Concentration (MFC),A niger E5 - 1047,2 µg/mL
same,Minimum Fungicidal Concentration (MFC),Penicillium 31620,16 µg/mL
same,Minimum Fungicidal Concentration (MFC),Penicillium 191,16 µg/mL
same,Minimum Fungicidal Concentration (MFC),C krusei 6258,64 µg/mL
same,MIC50,All Filamentous isolates,8 µg/mL
same,MIC90,All Filamentous isolates,32 µg/mL
same,MIC G.M.,All Filamentous isolates,7.246 µg/mL
same,MIC50,[1],16 µg/mL
same,MIC90,[1],64 µg/mL
same,MIC G.M.,[1],18.664 µg/mL
same,MIC50,Fusarium spp. isolates,32 µg/mL
same,MIC90,Fusarium spp. isolates,64 µg/mL
same,MIC G.M.,Fusarium spp. isolates,45.255 µg/mL
same,MIC50,Rhizoupus spp. isolates,4 µg/mL
same,MIC90,Rhizoupus spp. isolates,4 µg/mL
same,MIC G.M.,Rhizoupus spp. isolates,4 µg/mL
same,MIC50,All fungal pathogens,8 µg/mL
same,MIC90,All fungal pathogens,32 µg/mL
same,MIC G.M.,All fungal pathogens,4.16 µg/mL
same,MIC50,[2],8 µg/mL
same,MIC90,[2],8 µg/mL
same,MIC G.M.,[2],7.4 µg/mL
same,MIC50,All Candida isolates,0.5 µg/mL
same,MIC90,All Candida isolates,2 µg/mL
same,MIC G.M.,All Candida isolates,0.45 µg/mL
same,Minimum Inhibitory Concentration (MIC),C neoformans M-106,0.06 µg/mL
same,Minimum Inhibitory Concentration (MIC),C neoformans I,0.03 µg/mL
same,ED50,Aspergillus fumigatous; Day 7 post infection,10.08 mg/kg body weight
same,ED50,Aspergillus fumigatous; Day 14 post infection,20.39 mg/kg body weight
